Assay results: US20130296311A1, “INHIBITORS OF HCV NS5A” (PRESIDIO PHARMACEUTICALS, INC., priority 2010, published 2013)

system: HCV 1b_Huh-Luc/Neo-ET cell line persistently expressing a bicistronic genotype 1b replicon in Huh 7 cells; experiment: HCV replicon assay (luciferase readout, 72 h); assay type: cell-based, HCV genotype 1b; settings: Hepatitis C virus, Huh-7, 72 h, read-out: Inhibition of HCV
In short: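 Huh 7 cells carrying a bicistronic genotype 1b luciferase/neo replicon received compound in triplicate the day after plating. After 72 h, replicon levels were read as Bright-Glo luciferase activity, expressed as % of control; EC50 was fitted with a four-parameter logistic and determined several times.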

Molecule `COC(=O)N[C@@H](C(=O)N1CCC[C@H]1c1nc2ccc(C#Cc3ccc4nc([C@@H]5CCCN5C(=O)[C@H](NC(=O)OC)c5ccccc5)[nH]c4c3)cc2[nH]1)c1ccccc1` [Compound 851] has an EC50 of less than 1 nM.

same assay, conditions: Hepatitis C virus, Huh-7, 72 h, read-out: Inhibition of HCV genotype 1b

`O=C(N[C@@H](C(=O)N1CCC[C@H]1c1ncc(C#Cc2ccc(-c3ccc(-c4cnc([C@@H]5CCCN5C(=O)[C@H](NC(=O)N5CC[C@H](O)C5)c5ccccc5)[nH]4)cc3)cc2)[nH]1)c1ccccc1)N1CC[C@H](O)C1` [Compound 762] and `O=C(N[C@@H](C(=O)N1CCC[C@H]1c1ncc(C#Cc2ccc(-c3ccc(-c4cnc([C@@H]5CCCN5C(=O)[C@H](NC(=O)C5CC5)c5ccccc5)[nH]4)cc3)cc2)[nH]1)c1ccccc1)C1CC1` [Compound 760] cannot be ordered by EC50: less than 1 nM for the first, less than 1 nM for the second.

`CC(C)[C@@H](NC(=O)OC(C)(C)C)C(=O)N1CCC[C@H]1c1ncc(C#Cc2ccc(-c3cnc([C@@H]4CCCN4C(=O)[C@H](NC(=O)OC(C)(C)C)C(C)C)[nH]3)cc2)[nH]1` [Compound 105] and `CC(C)(C)OC(=O)NCC(=O)N1CCC[C@H]1c1ncc(C#Cc2ccc(-c3cnc([C@@H]4CCCN4C(=O)CNC(=O)OC(C)(C)C)[nH]3)cc2)[nH]1` [Compound 103] fall in the same range of EC50: 10 to 999 nM for the first, 10 to 999 nM for the second.

First: CC(C)[C@H](NC(=O)C1CC1)C(=O)N1CCC[C@H]1c1ncc(-c2ccc(C#Cc3ccc(-c4cnc([C@@H]5CCCN5C(=O)[C@@H](NC(=O)C5CC5)C(C)C)[nH]4)cc3)cc2)[nH]1 [Compound 170]
Second: COC(=O)N[C@H](C(=O)N1CCC[C@H]1c1ncc(-c2ccc(C#Cc3ccc(-c4cnc([C@@H]5CCCN5C(=O)[C@@H](NC(=O)OC)C(C)C)[nH]4)cc3)cc2)[nH]1)C(C)C [Compound 266]
The EC50 of the first is higher: 1 to 9.9 nM for the first, less than 1 nM for the second. The second is the more potent here.

`COC(=O)N[C@@H](C)C(=O)N1CCC[C@H]1c1ncc(-c2ccc(C#Cc3ccc4nc([C@@H]5CCCN5C(=O)[C@H](C)NC(=O)OC)[nH]c4c3)cc2)[nH]1` [Compound 1028] and `CC[C@H](NC(=O)OC)C(=O)N1CCC[C@H]1c1ncc(-c2ccc(C#Cc3ccc4nc([C@@H]5CCCN5C(=O)[C@H](CC)NC(=O)OC)[nH]c4c3)cc2)[nH]1` [Compound 1036] cannot be ordered by EC50: less than 1 nM for the first, less than 1 nM for the second.

Compared with `COC(=O)N[C@H](C(=O)N1CCC[C@H]1c1ncc(-c2ccc(C#Cc3ccc(-c4cnc([C@@H]5CCCN5C(=O)[C@@H](NC(=O)OC)C(C)C)[nH]4)c(F)c3)cc2)[nH]1)C(C)C` [Compound 1011], `COC(=O)N[C@@H](C(=O)N[C@@H](C)c1ncc(-c2ccc(C#Cc3ccc(-c4cnc([C@@H]5CCCN5C(=O)[C@H](NC(=O)OC)C(C)C)[nH]4)cc3)cc2)[nH]1)C(C)C` [Compound 290] is higher in EC50: less than 1 nM for the first, greater than 1000 nM for the second.

`COC(=O)N[C@H](C(=O)N1CCC[C@H]1c1ncc(-c2ccc3nc(C#Cc4ccc5nc([C@@H]6CCCN6C(=O)[C@@H](NC(=O)OC)C6CCOCC6)[nH]c5c4)ccc3c2)[nH]1)C1CCOCC1` [Compound 1108] and `COC(=O)N[C@H](C(=O)N1CCC[C@H]1c1nc(-c2ccc3cc(C#Cc4cnc([C@@H]5CCCN5C(=O)[C@@H](NC(=O)OC)C5CCOCC5)[nH]4)ccc3c2)c[nH]1)C(C)C` [Compound 1079] cannot be ordered by EC50: less than 1 nM for the first, less than 1 nM for the second.

`O=C([C@@H](c1ccccc1)N1CCCCC1)N1CCC[C@H]1c1ncc(-c2ccc(C#Cc3ccc(-c4cnc([C@@H]5CCCN5C(=O)[C@@H](c5ccccc5)N5CCCCC5)[nH]4)cc3)cc2)[nH]1` [Compound 205] and `COC(=O)N[C@@H](C(=O)N1CCC[C@H]1c1ncc(-c2ccc(C#Cc3ccc(-c4cnc([C@@H]5CCCN5C(=O)[C@@H](c5ccccc5)N5CCCCC5)[nH]4)cc3)cc2)[nH]1)c1ccccc1` [Compound 188] cannot be ordered by EC50: less than 1 nM for the first, less than 1 nM for the second.

`C[C@H](NC(=O)[C@@H]1CCCN1C(=O)[C@H](NC(=O)C1CC1)c1ccccc1)c1ccc(C#Cc2ccc(-c3cnc([C@@H]4CCCN4C(=O)[C@H](NC(=O)C4CC4)c4ccccc4)[nH]3)cc2)cc1` [Compound 191] and `O=C(N[C@@H](C(=O)N1CCC[C@H]1C(=O)NCCc1ccc(C#Cc2cnc([C@@H]3CCCN3C(=O)[C@H](NC(=O)C3CC3)c3ccccc3)[nH]2)cc1)c1ccccc1)C1CC1` [Compound 125] cannot be ordered by EC50: less than 1 nM for the first, less than 1 nM for the second.

`CN(C)[C@@H](C(=O)N1CCC[C@H]1c1ncc(-c2ccc(C#Cc3cnc([C@@H]4CCCN4C(=O)[C@H](NC(=O)C4CC4)c4ccccc4)[nH]3)cc2)[nH]1)c1ccccc1` [Compound 131] and `COC(=O)N[C@@H](C(=O)N1CCC[C@H]1c1ncc(C#Cc2ccc(-c3ccc(-c4cnc([C@@H]5CCCN5C(=O)[C@@H](c5ccccc5)N5CCCCC5)[nH]4)cc3)cc2)[nH]1)c1ccccc1` [Compound 752] cannot be ordered by EC50: less than 1 nM for the first, less than 1 nM for the second.

`COC(=O)N[C@@H](C)C(=O)N1CCC[C@H]1c1ncc(-c2ccc(C#Cc3ccc(-c4cnc([C@@H]5CCCN5C(=O)[C@@H](c5ccccc5)N5CCOC5=O)[nH]4)cc3)cc2)[nH]1` [Compound 1008] and `COC(=O)N[C@@H](C(=O)N1CCC[C@H]1c1ncc(-c2ccc(C#Cc3ccc(-c4cnc([C@@H]5CCCN5C(=O)N5CCOCC5)[nH]4)cc3)cc2)[nH]1)c1ccccc1` [Compound 198] cannot be ordered by EC50: less than 1 nM for the first, less than 1 nM for the second.

`COC(=O)N[C@@H](C(=O)N1CCC[C@H]1c1ncc(-c2ccc(C#Cc3ccc(-c4cnc([C@@H]5CCCN5C(=O)[C@H](NC(=O)N5CCC[C@@H]5C)c5ccccc5)[nH]4)cc3)cc2)[nH]1)c1ccccc1` [Compound 261] and `COC(=O)N[C@@H](C(=O)N1CCC[C@H]1c1ncc(-c2ccc(C#Cc3ccc(-c4cnc([C@@H]5CCCN5C(=O)[C@H](NC(=O)N5CC[C@H](O)C5)c5ccccc5)[nH]4)cc3)cc2)[nH]1)c1ccccc1` [Compound 269] cannot be ordered by EC50: less than 1 nM for the first, less than 1 nM for the second.

`CCOC(=O)N[C@@H](C(=O)N1CCC[C@H]1c1ncc(-c2ccc(C#Cc3ccc(-c4cnc([C@@H]5CCCN5C(=O)[C@H](NC(=O)OCC)c5ccccc5)[nH]4)cc3)cc2)[nH]1)c1ccccc1` [Compound 244] and `CC(C)(C)OC(=O)N[C@@H](C(=O)N1CCC[C@H]1c1ncc(-c2ccc(C#Cc3ccc(-c4cnc([C@@H]5CCCN5C(=O)[C@H](NC(=O)OC(C)(C)C)c5ccccc5)[nH]4)cc3)cc2)[nH]1)c1ccccc1` [Compound 246] cannot be ordered by EC50: less than 1 nM for the first, less than 1 nM for the second.

`CS(=O)(=O)N[C@@H](C(=O)N1CCC[C@H]1c1ncc(-c2ccc(C#Cc3ccc(-c4cnc([C@@H]5CCCN5C(=O)[C@@H](c5ccccc5)N5CCCC5)[nH]4)cc3)cc2)[nH]1)c1ccccc1` [Compound 230] and `COC(=O)N[C@@H](C(=O)N1CCC[C@H]1c1ncc(-c2ccc(C#Cc3ccc(-c4cnc([C@@H]5CCCN5C(=O)Cc5cccnc5)[nH]4)cc3)cc2)[nH]1)c1ccccc1` [Compound 181] cannot be ordered by EC50: less than 1 nM for the first, less than 1 nM for the second.

First: COC[C@H](NC(=O)OC)C(=O)N1CCC[C@H]1c1ncc(-c2ccc(C#Cc3ccc4nc([C@@H]5CCCN5C(=O)[C@H](COC)NC(=O)OC)[nH]c4c3)cc2)[nH]1 [Compound 1037]
Second: COC(=O)N[C@@H](CCC(N)=O)C(=O)N1CCC[C@H]1c1ncc(-c2ccc(C#Cc3ccc4nc([C@@H]5CCCN5C(=O)[C@H](CCC(N)=O)NC(=O)OC)[nH]c4c3)cc2)[nH]1 [Compound 1051]
The EC50 of the first is lower: less than 1 nM for the first, 1 to 9.9 nM for the second. The first is the more potent here.

First: CC(C)[C@H](NC(=O)N1CCCC1)C(=O)N1CCC[C@H]1c1ncc(-c2ccc(C#Cc3ccc(-c4cnc([C@@H]5CCCN5C(=O)[C@@H](NC(=O)N5CCCC5)C(C)C)[nH]4)cc3)cc2)[nH]1 [Compound 288]
Second: CC(C)[C@@H](NC(=O)N1CCC(O)CC1)C(=O)N1CCC[C@H]1c1ncc(-c2ccc(C#Cc3ccc(-c4cnc([C@@H]5CCCN5C(=O)[C@H](NC(=O)N5CCC(O)CC5)C(C)C)[nH]4)cc3)cc2)[nH]1 [Compound 959]
The EC50 of the first is higher: greater than 1000 nM for the first, less than 1 nM for the second.

First: CC(C)[C@@H](NC(=O)C1CC1)C(=O)N1CCC[C@H]1c1ncc(C#Cc2ccc(C#Cc3cnc([C@@H]4CCCN4C(=O)[C@H](NC(=O)C4CC4)C(C)C)[nH]3)cc2)[nH]1 [Compound 302]
Second: CN1CCN(C(=O)N[C@@H](C(=O)N2CCC[C@H]2c2ncc(C#Cc3ccc(C#Cc4cnc([C@@H]5CCCN5C(=O)[C@H](NC(=O)N5CCN(C)CC5)c5ccccc5)[nH]4)cc3)[nH]2)c2ccccc2)CC1 [Compound 310]
The EC50 of the first is higher: greater than 1000 nM for the first, 1 to 9.9 nM for the second.

Compared with `CC(C)[C@H](NC(=O)[C@H](NC(=O)OC(C)(C)C)c1ccccc1)c1ncc(-c2ccc(C#Cc3ccc(-c4cnc([C@@H]5CCCN5C(=O)[C@H](NC(=O)OC(C)(C)C)c5ccccc5)[nH]4)cc3)cc2)[nH]1` [Compound 281], `C[C@H](NC(=O)[C@H](NC(=O)OC(C)(C)C)c1ccccc1)c1ncc(-c2ccc(C#Cc3ccc(-c4cnc([C@@H]5CCCN5C(=O)[C@H](NC(=O)OC(C)(C)C)c5ccccc5)[nH]4)cc3)cc2)[nH]1` [Compound 280] is lower in EC50: 1 to 9.9 nM for the first, less than 1 nM for the second.

First: COC(=O)N[C@H](C(=O)N1CCC[C@H]1c1ncc(-c2ccc(C#Cc3ccc(-c4cnc([C@@H]5CCCN5C(=O)[C@@H](NC(=O)N5CCN(CCO)CC5)c5ccccc5)[nH]4)cc3)cc2)[nH]1)C(C)C [Compound 990]
Second: C[C@@H](c1ncc(-c2ccc(C#Cc3ccc(-c4cnc([C@@H]5CCCN5C(=O)[C@H](NC(=O)OC(C)(C)C)c5ccccc5)[nH]4)cc3)cc2)[nH]1)N(C)C(=O)[C@H](NC(=O)OC(C)(C)C)c1ccccc1 [Compound 265]
The EC50 of the first is higher: 1 to 9.9 nM for the first, less than 1 nM for the second.

First: COC(=O)N[C@H]1CCC[C@@H]1C(=O)N1CCC[C@H]1c1ncc(-c2ccc(C#Cc3ccc4nc([C@@H]5CCCN5C(=O)[C@H]5CCC[C@@H]5NC(=O)OC)[nH]c4c3)cc2)[nH]1 [Compound 1059]
Second: CC(C)(C)OC(=O)N1CCCC1c1ncc(-c2ccc(C#Cc3ccc4nc([C@@H]5CCCN5C(=O)OC(C)(C)C)[nH]c4c3)cc2)[nH]1 (some centres unmarked) [Compound 1034]
The EC50 of the first is higher: 10 to 999 nM for the first, 1 to 9.9 nM for the second.

same assay, conditions: Hepatitis C virus, Huh-7, read-out: Inhibition of HCV genotype 1b

`COC(=O)N[C@@H](C(=O)N[C@@H](C)c1ncc(-c2ccc(C#Cc3ccc4nc([C@@H]5CCCN5C(=O)[C@H](NC(=O)OC)c5ccccc5)[nH]c4c3)cc2)[nH]1)c1ccccc1` [Compound 1226] and `CC[C@H](NC(=O)OC)C(=O)N1CCC[C@H]1c1nc2ccc(C#Cc3ccc(-c4cnc([C@@H]5CCCN5C(=O)[C@@H](NC(=O)OC)[C@@H](C)OC)[nH]4)cc3)cc2[nH]1` [Compound 1245] cannot be ordered by EC50: less than 1 nM for the first, less than 1 nM for the second.
